In paper PMC7749613 (Journal of Cachexia, Sarcopenia and Muscle, 2020):
Values joined by “and” are separate entries in the source; they are usually repeats but may differ in a detail not shown here. Equal values may be shown once.

What was measured:
OCT2 = target: T1, OCT2 (Homo sapiens, UniProt O15244); test: Cellular uptake in HEK293/OCT2‐transfected versus mock cells; format: in vitro ADME; settings: OCT2, at 5.0 min
T1 construct: host or cells: HEK293
T1 sequence (O15244 1-555): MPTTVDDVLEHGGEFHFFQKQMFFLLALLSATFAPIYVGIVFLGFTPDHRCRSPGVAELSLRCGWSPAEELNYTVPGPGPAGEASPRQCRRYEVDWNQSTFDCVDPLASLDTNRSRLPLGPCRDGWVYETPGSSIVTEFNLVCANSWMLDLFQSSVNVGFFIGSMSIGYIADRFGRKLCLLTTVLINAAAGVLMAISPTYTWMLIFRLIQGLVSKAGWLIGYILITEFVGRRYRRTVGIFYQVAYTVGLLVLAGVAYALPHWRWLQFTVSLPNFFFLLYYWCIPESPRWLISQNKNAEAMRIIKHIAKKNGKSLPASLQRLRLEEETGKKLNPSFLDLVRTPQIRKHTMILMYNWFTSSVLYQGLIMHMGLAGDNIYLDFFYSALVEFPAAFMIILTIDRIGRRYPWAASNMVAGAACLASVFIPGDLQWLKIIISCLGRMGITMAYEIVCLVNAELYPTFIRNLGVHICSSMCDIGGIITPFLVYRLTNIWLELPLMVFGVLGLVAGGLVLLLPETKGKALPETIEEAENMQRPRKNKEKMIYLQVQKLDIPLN
Experimental: (§4) Cells were then washed three times × 1.0 mL each with pre‐warmed Hank's Balanced Salt Solution (HBSS) buffer. A 0.5 mL aliquot of uptake buffer [HBSS plus 10 mM 4‐(2‐hydroxyethyl)‐1‐piperazineethanesulfonic acid (HEPES), pH 7.4], containing the radiolabelled prototypical substrate and mannitol, was then incubated for various times up to 60 min to determine the optimal incubation time for subsequent experiments (i.e. time of sampling during linear uptake conditions). At the designated times, 1.0 mL of ice‐cold HBSS buffer was added to stop uptake after which the cells were rinsed three times with 1.0 mL with ice‐cold HBSS. Hyamine hydroxide (0.33 mL) was then added to each well to lyse the cells. The cells were transferred into a scintillation vial and mixed with 6.0 mL of cytosine scintillation cocktail. Radioactivity of the solubilized cells was determined with a dual‐channel liquid scintillation counter (Beckman LS 6000; Beckman Coulter Inc., Fullerton, CA) and the protein quantified by a bicinchoninic acid protein assay kit (Pierce Biotechnology; Rockford, IL).

human P‐gp (ABCB1, MDR1) = target: T2, human P‐gp (ABCB1, MDR1) (Homo sapiens, UniProt P08183); test: Transepithelial transport of digoxin (±TCMCB07) in MDCKII/MDR1 cells; format: in vitro ADME; settings: MDCKII/MDR1, digoxin alone
T2 construct: host or cells: MDCKII
T2 sequence (P08183 whole entry): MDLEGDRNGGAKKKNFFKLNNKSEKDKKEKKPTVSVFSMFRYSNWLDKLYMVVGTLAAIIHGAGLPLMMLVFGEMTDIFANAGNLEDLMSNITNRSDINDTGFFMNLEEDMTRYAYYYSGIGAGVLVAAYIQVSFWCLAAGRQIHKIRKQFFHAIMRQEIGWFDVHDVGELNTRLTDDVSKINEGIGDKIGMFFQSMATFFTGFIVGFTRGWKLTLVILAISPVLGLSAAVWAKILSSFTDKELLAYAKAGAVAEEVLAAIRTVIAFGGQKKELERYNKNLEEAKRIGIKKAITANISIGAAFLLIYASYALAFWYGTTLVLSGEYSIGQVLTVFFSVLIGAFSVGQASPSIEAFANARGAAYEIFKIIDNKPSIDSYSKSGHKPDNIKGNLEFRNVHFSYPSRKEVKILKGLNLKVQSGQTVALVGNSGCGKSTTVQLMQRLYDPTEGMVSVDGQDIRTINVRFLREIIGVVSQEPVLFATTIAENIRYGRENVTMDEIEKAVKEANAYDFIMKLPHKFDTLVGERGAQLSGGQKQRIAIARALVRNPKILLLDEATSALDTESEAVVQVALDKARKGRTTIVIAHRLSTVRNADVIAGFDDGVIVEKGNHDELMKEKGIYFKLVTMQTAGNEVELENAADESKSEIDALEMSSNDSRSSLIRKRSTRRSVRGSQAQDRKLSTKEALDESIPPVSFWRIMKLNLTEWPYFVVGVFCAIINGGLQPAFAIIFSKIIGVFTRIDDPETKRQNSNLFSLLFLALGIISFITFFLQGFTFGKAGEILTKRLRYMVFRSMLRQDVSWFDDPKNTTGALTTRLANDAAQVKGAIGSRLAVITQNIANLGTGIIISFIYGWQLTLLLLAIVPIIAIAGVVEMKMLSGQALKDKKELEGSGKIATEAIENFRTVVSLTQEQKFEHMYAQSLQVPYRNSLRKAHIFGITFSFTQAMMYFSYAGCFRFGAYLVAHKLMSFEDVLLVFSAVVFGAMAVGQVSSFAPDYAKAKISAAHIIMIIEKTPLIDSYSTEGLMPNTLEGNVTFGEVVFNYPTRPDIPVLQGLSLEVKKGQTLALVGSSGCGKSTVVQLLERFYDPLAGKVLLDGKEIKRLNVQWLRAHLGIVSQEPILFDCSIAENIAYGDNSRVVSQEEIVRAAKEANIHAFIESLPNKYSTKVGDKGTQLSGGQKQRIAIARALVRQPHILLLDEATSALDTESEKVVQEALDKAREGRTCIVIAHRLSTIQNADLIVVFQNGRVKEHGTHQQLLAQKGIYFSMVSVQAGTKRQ
Experimental: (§1) Cells were then washed three times, each with 0.5 mL pre‐warmed HBSS buffer. […] The cells were then incubated for various times up to 60 min. […] At the designated times, 15 μL of apical buffer and 50 μL of basolateral buffer were sampled. Once all the samples were collected, 0.5 mL of ice‐cold HBSS buffer was added to the well to stop transport after which the cells were rinsed three times with 0.5 mL of ice‐cold HBSS. The filters with monolayers were then detached from the chamber and placed in a scintillation vial, and the cells were lysed with 0.33 mL hyamine hydroxide.
(§2) The permeability of digoxin and rosuvastatin (prototypical substrates for MDR1 and BCRP, respectively) was determined by the following ^18 : (4) Papp=CR·VR/CD^o·A·∆Δt, where Papp is the apparent permeability, CR is the concentration of substrate in the receiver chamber, CD^o is the concentration of substrate in the donor chamber at time zero, VR is the volume of buffer in the receiver chamber, A is the surface area of the insert filter membrane, and ∆t is the time over which permeability is measured.

[1] = Transepithelial transport in MDCKII mock cells; format: in vitro ADME; settings: dog, MDCK
Experimental: as §1, §2

BCRP (ABCG2) = target: T3, BCRP (ABCG2) (Homo sapiens, UniProt Q9UNQ0); test: Transepithelial transport of rosuvastatin (±TCMCB07) in MDCKII/BCRP cells; format: in vitro ADME; settings: human, pH 7.4, MDCKII/BCRP, rosuvastatin alone
T3 construct: host or cells: MDCKII
T3 sequence (Q9UNQ0 1-655): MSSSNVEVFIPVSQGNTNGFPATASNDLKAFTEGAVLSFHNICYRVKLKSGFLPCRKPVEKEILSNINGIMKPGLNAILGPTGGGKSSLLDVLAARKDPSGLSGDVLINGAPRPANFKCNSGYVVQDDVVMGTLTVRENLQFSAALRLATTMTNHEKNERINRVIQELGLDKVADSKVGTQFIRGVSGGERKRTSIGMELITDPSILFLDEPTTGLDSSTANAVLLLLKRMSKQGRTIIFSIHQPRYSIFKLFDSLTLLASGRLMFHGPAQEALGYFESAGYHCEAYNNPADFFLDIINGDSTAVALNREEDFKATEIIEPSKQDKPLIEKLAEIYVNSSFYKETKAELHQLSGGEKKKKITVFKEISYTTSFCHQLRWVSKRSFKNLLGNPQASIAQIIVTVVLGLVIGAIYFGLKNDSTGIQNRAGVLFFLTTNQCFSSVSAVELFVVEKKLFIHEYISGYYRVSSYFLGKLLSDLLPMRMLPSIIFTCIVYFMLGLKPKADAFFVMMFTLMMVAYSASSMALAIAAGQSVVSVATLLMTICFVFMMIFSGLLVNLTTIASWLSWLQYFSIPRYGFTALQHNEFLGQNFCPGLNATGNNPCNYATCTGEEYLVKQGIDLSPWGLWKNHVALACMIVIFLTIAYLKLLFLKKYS
Experimental: as §1, §2
A similar analysis can be performed for rosuvastatin by substituting ERRos for ERDig and ERRos+T for ERDig+T in Eqn 6.

OATP2B1 = target: T4, OATP2B1 (Homo sapiens, UniProt O94956); test: Cellular uptake in HEK293/OATP2B1‐transfected versus mock cells; format: in vitro ADME; settings: OATP2B1, at 1.5 min
T4 construct: host or cells: HEK293
T4 sequence (O94956 1-709): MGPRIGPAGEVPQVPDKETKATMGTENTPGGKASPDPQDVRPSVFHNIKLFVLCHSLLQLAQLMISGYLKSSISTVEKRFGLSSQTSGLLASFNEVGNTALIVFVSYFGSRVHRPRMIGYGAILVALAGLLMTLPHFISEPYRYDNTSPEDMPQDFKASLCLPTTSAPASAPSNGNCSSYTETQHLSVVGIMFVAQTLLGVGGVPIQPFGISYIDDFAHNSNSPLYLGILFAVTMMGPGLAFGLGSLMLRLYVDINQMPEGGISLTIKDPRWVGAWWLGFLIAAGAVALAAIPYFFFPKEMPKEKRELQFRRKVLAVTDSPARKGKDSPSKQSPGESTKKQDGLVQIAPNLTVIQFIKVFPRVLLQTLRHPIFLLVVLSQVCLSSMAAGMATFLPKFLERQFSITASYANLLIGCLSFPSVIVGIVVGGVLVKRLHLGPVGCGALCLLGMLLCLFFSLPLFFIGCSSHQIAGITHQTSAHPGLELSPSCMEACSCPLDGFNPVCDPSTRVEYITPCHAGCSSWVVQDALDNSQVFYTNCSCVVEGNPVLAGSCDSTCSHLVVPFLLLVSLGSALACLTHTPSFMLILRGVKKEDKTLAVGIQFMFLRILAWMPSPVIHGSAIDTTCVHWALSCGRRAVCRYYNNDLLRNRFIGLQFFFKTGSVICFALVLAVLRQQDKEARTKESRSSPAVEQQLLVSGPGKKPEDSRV
Experimental: as §4

OAT3 = target: T5, OAT3 (Homo sapiens, UniProt Q8TCC7); test: Cellular uptake in HEK293/OAT3‐transfected versus mock cells; format: in vitro ADME; settings: OAT3, at 5.0 min
T5 construct: host or cells: HEK293
T5 sequence (Q8TCC7 1-542): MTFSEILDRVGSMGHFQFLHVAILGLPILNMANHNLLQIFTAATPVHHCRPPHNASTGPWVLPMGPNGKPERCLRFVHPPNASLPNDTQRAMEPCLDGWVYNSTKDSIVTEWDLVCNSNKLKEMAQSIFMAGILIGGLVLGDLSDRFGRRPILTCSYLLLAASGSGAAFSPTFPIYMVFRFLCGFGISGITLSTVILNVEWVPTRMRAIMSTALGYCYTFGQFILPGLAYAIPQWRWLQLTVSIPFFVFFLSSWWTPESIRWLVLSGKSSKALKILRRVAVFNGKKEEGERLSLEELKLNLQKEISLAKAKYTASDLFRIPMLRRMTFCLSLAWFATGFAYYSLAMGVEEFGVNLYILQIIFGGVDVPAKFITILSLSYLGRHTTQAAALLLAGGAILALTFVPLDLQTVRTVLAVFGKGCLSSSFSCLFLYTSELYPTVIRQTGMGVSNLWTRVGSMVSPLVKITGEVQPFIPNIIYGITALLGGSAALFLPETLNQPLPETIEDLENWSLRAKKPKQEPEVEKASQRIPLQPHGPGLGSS
Experimental: as §4

MATE1 = target: T6, MATE1 (Homo sapiens, UniProt Q96FL8); test: Cellular uptake in HEK293/MATE1‐transfected versus mock cells; format: in vitro ADME; design: host or cells: HEK293; settings: MATE1, at 2.0 min
T6 sequence (Q96FL8 1-570): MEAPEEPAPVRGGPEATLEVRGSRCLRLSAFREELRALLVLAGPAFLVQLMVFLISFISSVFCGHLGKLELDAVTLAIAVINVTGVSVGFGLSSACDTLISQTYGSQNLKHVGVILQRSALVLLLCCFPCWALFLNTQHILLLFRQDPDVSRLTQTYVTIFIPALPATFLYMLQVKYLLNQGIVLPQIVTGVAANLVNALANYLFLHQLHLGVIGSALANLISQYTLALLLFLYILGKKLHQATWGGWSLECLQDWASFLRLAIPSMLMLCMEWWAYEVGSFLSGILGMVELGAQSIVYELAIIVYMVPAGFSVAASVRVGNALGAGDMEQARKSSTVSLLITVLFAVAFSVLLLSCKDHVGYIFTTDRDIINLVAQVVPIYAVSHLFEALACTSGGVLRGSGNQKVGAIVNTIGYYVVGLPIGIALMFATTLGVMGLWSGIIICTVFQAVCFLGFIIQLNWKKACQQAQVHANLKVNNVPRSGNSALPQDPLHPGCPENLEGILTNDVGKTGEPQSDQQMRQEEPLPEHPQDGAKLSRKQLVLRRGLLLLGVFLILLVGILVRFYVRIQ
Experimental: (§3) However, for these studies, a different incubation buffer was used (145 mM NaCl, 3 mM KCl, 1 mM CaCl2, 0.5 mM MgCl2, 5 mM glucose, and 5 mM HEPES, pH 7.4). ^13 Moreover, intracellular acidification was achieved by preincubating the cells in buffer containing 30 mM ammonium chloride for 20 min at 37°C. […] Radioactivity and protein measurements were performed as described previously.

MATE2‐K = MATE2‐K (Homo sapiens, UniProt Q86VL8); test: Cellular uptake in HEK293/MATE2‐K‐transfected versus mock cells; format: in vitro ADME; design: host or cells: HEK293; settings: at 2.0 min
MATE2‐K, sequence (Q86VL8 1-566 isoform Q86VL8-3): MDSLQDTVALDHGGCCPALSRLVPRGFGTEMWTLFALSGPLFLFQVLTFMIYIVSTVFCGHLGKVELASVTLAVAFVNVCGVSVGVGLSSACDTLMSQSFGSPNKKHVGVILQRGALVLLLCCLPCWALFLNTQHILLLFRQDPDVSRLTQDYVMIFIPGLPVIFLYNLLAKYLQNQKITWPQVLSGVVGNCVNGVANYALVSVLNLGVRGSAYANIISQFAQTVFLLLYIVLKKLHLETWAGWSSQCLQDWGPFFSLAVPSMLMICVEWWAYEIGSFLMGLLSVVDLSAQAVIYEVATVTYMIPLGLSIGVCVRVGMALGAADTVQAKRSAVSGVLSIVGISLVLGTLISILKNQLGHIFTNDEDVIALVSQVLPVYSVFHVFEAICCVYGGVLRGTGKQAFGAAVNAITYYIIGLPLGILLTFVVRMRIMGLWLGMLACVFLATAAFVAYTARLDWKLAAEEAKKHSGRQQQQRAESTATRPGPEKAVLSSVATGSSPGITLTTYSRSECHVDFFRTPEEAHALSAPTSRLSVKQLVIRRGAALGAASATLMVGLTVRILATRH
Experimental: as §3

[2] = In vivo mass balance study (urinary and faecal recovery) in mice
Experimental: Each mouse was then placed in a metabolic cage for 24 h, along with food and water, and the urine and faeces were collected. The metabolic cage was washed several times, after which 100 μL aliquots of diluted urine and faeces was placed in separate vials. Radioactivity measurements were then performed as described previously. All animal procedures were approved by the Institutional Animal Care and Use Committee at the University of Michigan, Ann Arbor.

[3] = table values multiplied ×10^6, cm/s

Molecule: C[n+]1ccc(-c2ccccc2)cc1 [1‐methyl‐4‐phenylpyridinium]
- mean enhancement of uptake (transfected/mock) (OCT2): 373

Molecule: C[C@H]1O[C@@H](O[C@H]2[C@@H](O)C[C@H](O[C@H]3[C@@H](O)C[C@H](O[C@H]4CC[C@@]5(C)[C@H](CC[C@@H]6[C@@H]5C[C@@H](O)[C@]5(C)[C@@H](C7=CC(=O)OC7)CC[C@]65O)C4)O[C@@H]3C)O[C@@H]2C)C[C@H](O)[C@@H]1O [Digoxin, digoxin]
- Efflux ratio of digoxin, Papp B to A/Papp A to B (human P‐gp (ABCB1, MDR1)): 24.2 ± 7.3
- Papp (A to B) of digoxin (human P‐gp (ABCB1, MDR1); [3]): 1.1 ± 0.3 ×10^−6 cm/s
- Papp (B to A) of digoxin (human P‐gp (ABCB1, MDR1); [3]): 22.4 ± 4.0 ×10^−6 cm/s
- efflux ratio at 38 nM ([1]; pH 7.4, read-out: mean efflux ratio of digoxin): 4.5
- Papp A→B at 38 nM ([1]; pH 7.4, read-out: mean permeability of digoxin (A to B)): 6.3 ×10⁻⁶ cm/s
- Papp B→A at 38 nM ([1]; pH 7.4, read-out: mean permeability of digoxin (B to A)): 20.8 ×10⁻⁶ cm/s

Molecule: CC(C)c1nc(N(C)S(C)(=O)=O)nc(-c2ccc(F)cc2)c1/C=C/[C@@H](O)C[C@@H](O)CC(=O)O [Rosuvastatin, rosuvastatin]
- efflux ratio at 21 nM (BCRP (ABCG2); read-out: Efflux ratio of rosuvastatin, Papp B to A/Papp A to B): 7 ± 0.3
- Papp A→B at 21 nM (BCRP (ABCG2); [3]): 11 ± 0.1 ×10⁻⁶ cm/s
- Papp B→A at 21 nM (BCRP (ABCG2); [3]): 76.8 ± 4.1 ×10⁻⁶ cm/s
- efflux ratio at 21 nM ([1]; pH 7.4, read-out: mean efflux ratio of rosuvastatin): 3.1
- Papp A→B at 21 nM ([1]; pH 7.4, read-out: mean permeability of rosuvastatin (A to B)): 18 ×10⁻⁶ cm/s
- Papp B→A at 21 nM ([1]; pH 7.4, read-out: mean permeability of rosuvastatin (B to A)): 55 ×10⁻⁶ cm/s

Molecule: C[C@]12CC[C@@H]3c4ccc(OS(=O)(=O)O)cc4CC[C@H]3[C@@H]1CCC2=O [estrone 3‐sulfate]
- mean enhancement of uptake (transfected/mock) (OATP2B1): 63.5
- mean enhancement of uptake (transfected/mock) (OAT3): 470

Molecule: CC[N+](CC)(CC)CC [tetraethylammonium]
- mean enhancement of uptake (transfected/mock) (MATE1): 122
- mean enhancement of uptake (transfected/mock) (MATE2‐K): 46.7

Molecule: inulin
- % Urinary recovery, intravenous inulin ([2]; individual mice, [3H]inulin iv bolus given with intravenous TCMCB07, 24 h collection): 104% and 93.2% and 95.1%
- % Urinary recovery, intravenous inulin ([2]; individual mice, [3H]inulin iv bolus given with oral TCMCB07, 24 h collection (mouse 2: 48 h)): 106% and 100% and 107%
- % Urinary recovery, intravenous inulin ([2]; mean of 3 mice, given with intravenous TCMCB07): 97.4%
- % Urinary recovery, intravenous inulin ([2]; mean of 4 mice, given with oral TCMCB07): 105%
